Consider 37 compounds from patent US9255110B2 (Hoffmann-La Roche Inc., priority 2010, dated 2016).

Counter-ions that a name gives are not always drawn.

The target in this assay is IRAK-4 (Homo sapiens (Human), UniProt Q9NWZ3). The assay can be described thus: In vitro IRAK-4 kinase assay. The assay is classed as biochemical. The conditions noted are these: purified recombinant IRAK-4, 50 uM ATP, 33P peptide phosphorylation. Here is the method: Purified recombinant IRAK-4 protein was incubated with 250 uM synthetic peptide ([…]) in 30 ul of kinase buffer including (20 mM MOPS pH7.2, 25 mM beta glycerol phosphate, 5 mM EGTA, 1 mM sodium orthovanadate, 1 mM DTT, 50 uM ATP, 20 mM MgCl2, 10 uCi γ-^33P, 0.1% BSA) for the indicated time. For purified recombinant IRAK-1 protein kinase assay, 50 uM ATP was used. A 25 ul aliquot of the reaction mixture was transferred on to p81 phosphocellulose squares (Upstate Biotechnology, Lake Placid, N.Y.). The assay squares were washed three times with 0.75% phosphoric acid and once with acetone. Enzyme activity was measured by determining the bound radioactivity by liquid scintillation counting.
Sequence of IRAK-4 (Q9NWZ3 whole entry, species assumed): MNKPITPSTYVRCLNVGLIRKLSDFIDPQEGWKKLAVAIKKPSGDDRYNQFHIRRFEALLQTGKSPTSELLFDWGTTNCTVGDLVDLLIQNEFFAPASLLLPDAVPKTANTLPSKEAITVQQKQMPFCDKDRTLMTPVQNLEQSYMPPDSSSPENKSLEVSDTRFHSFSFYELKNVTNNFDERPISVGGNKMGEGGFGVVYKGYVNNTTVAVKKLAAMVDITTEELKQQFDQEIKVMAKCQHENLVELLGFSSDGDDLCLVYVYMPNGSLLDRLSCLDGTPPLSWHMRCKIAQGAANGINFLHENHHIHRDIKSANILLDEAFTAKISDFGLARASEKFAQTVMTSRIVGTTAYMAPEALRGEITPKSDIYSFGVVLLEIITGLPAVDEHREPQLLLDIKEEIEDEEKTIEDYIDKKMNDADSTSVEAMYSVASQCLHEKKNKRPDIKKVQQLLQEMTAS
For orientation: IC50 means the concentration that gives 50% inhibition. Consider `O=C(Nc1cc(Cl)ccc1C1CCCCC1)c1cnn2cccnc12` [Example 112, Pyrazolo[1,5-alpha]pyrimidine-3-carboxylic acid (5-chloro-2-cyclohexyl-phenyl)-amide], for which the IC50 was 799 nM.
For `CC(C)Oc1ccc(Cl)cc1NC(=O)c1csc2cncnc12` [Example 74, Thieno[3,2-d]pyrimidine-7-carboxylic acid (5-chloro-2-isopropoxy-phenyl)-amide], the IC50 worked out at 290 nM.
Consider `NCC1CCN(c2c(N)cccc2NC(=O)c2cnn3cccnc23)CC1` [Example 59, Pyrazolo[1,5-alpha]pyrimidine-3-carboxylic acid [3-amino-2-(4-aminomethyl-piperidin-1-yl)-phenyl]-amide], for which the IC50 turned out to be 133 nM.
The result for `O=C(Nc1cc(Cl)ccc1-c1ccc(O)cc1)c1cnn2cccnc12` [Example 94, Pyrazolo[1,5-alpha]pyrimidine-3-carboxylic acid (4-chloro-4′-hydroxy-biphenyl-2-yl)-amide] reads 477 nM; that for `O=C(Nc1cc(Cl)ccc1OC[C@@H](O)CO)c1cnn2cccnc12` [Example 137, Pyrazolo[1,5-alpha]pyrimidine-3-carboxylic acid [5-chloro-2-(2,3-dihydroxy-propoxy)-phenyl]-amide], 2310 nM.
Turning to `COc1ccc(Cl)cc1NC(=O)c1csc2cnc(NCCCO)nc12` [Example 126, 2-(3-Hydroxy-propylamino)-thieno[3,2-d]pyrimidine-7-carboxylic acid (5-chloro-2-methoxy-phenyl)-amide], the IC50 came out at 2060 nM.
With `O=C(Nc1cc(Cl)ccc1OC1CCC(O)CC1)c1cnn2cc(CCO)cnc12` (stereo not drawn) [Example 147, 6-(2-Hydroxy-ethyl)-pyrazolo[1,5-alpha]pyrimidine-3-carboxylic acid [5-chloro-2-(4-hydroxy-cyclohexyloxy)-phenyl]-amide] the figure was 3040 nM; with `COc1cc2ncccc2cc1NC(=O)c1csc2cnc(N(CCO)C(C)C)nc12` [Example 57, 2-[(2-Hydroxy-ethyl)-isopropyl-amino]-thieno[3,2-d]pyrimidine-7-carboxylic acid (7-methoxy-quinolin-6-yl)-amide], 127 nM; with “2-(cis-2-Amino-cyclohexylamino)-thieno[3,2-d]pyrimidine-7-carboxylic acid quinolin-8-ylamide [Example 22]”, 28 nM.
The result for `Cc1cc2cc(-c3ccc(CO)cc3)c(NC(=O)c3cnn4cccnc34)cc2[nH]1` [Example 36, Pyrazolo[1,5-alpha]pyrimidine-3-carboxylic acid [5-(4-hydroxymethyl-phenyl)-2-methyl-1H-indol-6-yl]-amide] reads 52 nM; that for `COc1ccc(NC(=O)c2cnn3cccnc23)c(OC)c1` [Example 158, Pyrazolo[1,5-alpha]pyrimidine-3-carboxylic acid (2,4-dimethoxy-phenyl)-amide], 4170 nM; that for `O=C(Nc1cc2ccccc2cc1OC1CCC(O)C1)c1cnn2cccnc12` (stereo not drawn) [Example 65, Pyrazolo[1,5-alpha]pyrimidine-3-carboxylic acid [3-(3-hydroxy-cyclopentyloxy)-naphthalen-2-yl]-amide], 177 nM.
The result for `CC(O)CCOc1cc2ncccc2cc1NC(=O)c1csc2cncnc12` (stereo not shown) [Example 28] reads 33 nM.
`O=C(Nc1cc(Cl)ccc1OC1CCC(CO)C1)c1cnn2cccnc12` (stereo not drawn) [Example 77, Pyrazolo[1,5-alpha]pyrimidine-3-carboxylic acid [5-chloro-2-(3-hydroxymethyl-cyclopentyloxy)-phenyl]-amide]: the IC50 stood at 306 nM.
The result for `COc1cc2ncccc2cc1NC(=O)c1csc2cnc(N(C)C(C)C)nc12` [Example 85, 2-(Isopropyl-methyl-amino)-thieno[3,2-d]pyrimidine-7-carboxylic acid (7-methoxy-quinolin-6-yl)-amide] reads 432 nM.
With `CN(CCO)c1ccc(Cl)cc1NC(=O)c1cnn2cccnc12` [Example 129, Pyrazolo[1,5-alpha]pyrimidine-3-carboxylic acid {5-chloro-2-[(2-hydroxy-ethyl)-methyl-amino]-phenyl}-amide] the figure was 2200 nM.
For `O=C(Nc1cc(Cl)ccc1OC(F)F)c1cnn2cccnc12` [Example 107, Pyrazolo[1,5-alpha]pyrimidine-3-carboxylic acid (5-chloro-2-difluoromethoxy-phenyl)-amide], the IC50 came out at 717 nM.
The result for `COc1ccc(Cl)cc1NC(=O)c1cnn2cccnc12` [Example 123, Pyrazolo[1,5-alpha]pyrimidine-3-carboxylic acid (5-chloro-2-methoxy-phenyl)-amide] reads 1630 nM; that for `O=C(Nc1cc(Cl)ccc1N1CCC(O)CC1)c1cnn2cccnc12` [Example 60, Pyrazolo[1,5-alpha]pyrimidine-3-carboxylic acid [5-chloro-2-(4-hydroxy-piperidin-1-yl)-phenyl]-amide], 136 nM.
On to `CC[C@@H](CO)Nc1ncc2scc(C(=O)Nc3cc(Cl)ccc3OC)c2n1` [Example 131, 2-(1-Hydroxymethyl-propylamino)-thieno[3,2-d]pyrimidine-7-carboxylic acid (5-chloro-2-methoxy-phenyl)-amide], for which the IC50 turned out to be 2230 nM.
The result for `CSc1ccc(Cl)cc1NC(=O)c1cnn2cccnc12` [Example 111, Pyrazolo[1,5-alpha]pyrimidine-3-carboxylic acid (5-chloro-2-methylsulfanyl-phenyl)-amide] reads 798 nM; that for `COc1ccc(/C=C/CO)cc1NC(=O)c1cnn2cccnc12` [Example 152, Pyrazolo[1,5-alpha]pyrimidine-3-carboxylic acid [5-(3-hydroxy-propenyl)-2-methoxy-phenyl]-amide], 3700 nM.
With `O=C(Nc1cc(Cl)ccc1N1CCCC(O)C1)c1cnn2cccnc12` (stereo not drawn) [Example 91, Pyrazolo[1,5-alpha]pyrimidine-3-carboxylic acid [5-chloro-2-(3-hydroxy-piperidin-1-yl)-phenyl]-amide] the figure was 474 nM; with `CC(C)(CCO)Oc1ccc(Cl)cc1NC(=O)c1csc2cncnc12` [Example 117, Thieno[3,2-d]pyrimidine-7-carboxylic acid [5-chloro-2-(3-hydroxy-1,1-dimethyl-propoxy)-phenyl]-amide], 1460 nM; with `COc1cc(C(=O)Nc2ccccc2)c(Cl)cc1NC(=O)c1cnn2cccnc12` [Example 174, Pyrazolo[1,5-alpha]pyrimidine-3-carboxylic acid (5-chloro-2-methoxy-4-phenylcarbamoyl-phenyl)-amide], 7920 nM.
Consider `CC(C)COc1ccc(Cl)cc1NC(=O)c1cnn2cccnc12` [Example 135, Pyrazolo[1,5-alpha]pyrimidine-3-carboxylic acid (5-chloro-2-isobutoxy-phenyl)-amide], for which the IC50 stood at 2280 nM.
For `O=C(Nc1cc2cccnc2cc1OC1CCNCC1)c1csc2cncnc12` [Example 56, Thieno[3,2-d]pyrimidine-7-carboxylic acid [7-(piperidin-4-yloxy)-quinolin-6-yl]-amide hydrochloride], the IC50 came to 125 nM.
With `O=C(Nc1cc(Cl)ccc1OC[C@H](O)CO)c1cnn2cccnc12` [Example 163, Pyrazolo[1,5-alpha]pyrimidine-3-carboxylic acid [5-chloro-2-(2,3-dihydroxy-propoxy)-phenyl]-amide], the IC50 is 4660 nM.
With `O=C(Nc1cc(Cl)ccc1OCc1cnco1)c1cnn2cccnc12` [Example 98, Pyrazolo[1,5-alpha]pyrimidine-3-carboxylic acid [5-chloro-2-(oxazol-5-ylmethoxy)-phenyl]-amide], the IC50 was 516 nM.
As for `O=C(Nc1cc(Cl)ccc1OC1CCC(O)C1)c1csc2cncnc12` (stereo not shown) [Example 120, Thieno[3,2-d]pyrimidine-7-carboxylic acid [5-chloro-2-(3-hydroxy-cyclopentyloxy)-phenyl]-amide], the IC50 stood at 1520 nM.
`O=C(Nc1cc(Cl)ccc1Oc1ccc(O)cc1)c1cnn2cccnc12` [Example 130, Pyrazolo[1,5-alpha]pyrimidine-3-carboxylic acid [5-chloro-2-(4-hydroxy-phenoxy)-phenyl]-amide]: the IC50 was 2220 nM.
Take `O=C(Nc1cc(Cl)ccc1OCCO)c1cnn2cccnc12` [Example 179, Pyrazolo[1,5-alpha]pyrimidine-3-carboxylic acid [5-chloro-2-(2-hydroxy-ethoxy)-phenyl]-amide]: the IC50 was found to be 5000 nM.
On to “2-(cis-2-amino-cyclohexylamino)-thieno[3,2-d]pyrimidine-7-carboxylic acid (5,6-dimethoxy-pyridin-2-yl)-amide [Example 27]”, for which the IC50 was determined as 31 nM.
The result for `O=C(Nc1cc(Cl)ccc1N1CCC(CO)CC1)c1cnn2cccnc12` [Example 42, Pyrazolo[1,5-alpha]pyrimidine-3-carboxylic acid [5-chloro-2-(4-hydroxymethyl-piperidin-1-yl)-phenyl]-amide] reads 72 nM; that for `COc1ccc(Br)cc1NC(=O)c1cnn2cccnc12` [Example 127, Pyrazolo[1,5-alpha]pyrimidine-3-carboxylic acid (5-bromo-2-methoxy-phenyl)-amide], 2140 nM; that for `O=C(Nc1cc(Cl)ccc1Oc1cccc(O)c1)c1cnn2cccnc12` [Example 156, Pyrazolo[1,5-alpha]pyrimidine-3-carboxylic acid [5-chloro-2-(3-hydroxy-phenoxy)-phenyl]-amide], 4050 nM.
The result for `COc1cc2cc(C)[nH]c2cc1NC(=O)c1cnn2cccnc12` [Example 72, Pyrazolo[1,5-alpha]pyrimidine-3-carboxylic acid (5-methoxy-2-methyl-1H-indol-6-yl)-amide] reads 255 nM.
